Assay results: PubChem BioAssay (NCI)
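96-well plates; 48 h exposure; 5 concentrations. Endpoints by linear interpolation between flanking doses. Not reached: highest tested concentration assigned. GI50 = concentration required for 50% inhibition of growth. TGI: concentration producing complete growth inhibition.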

How the values were obtained:
Test in all cases: NCI-60 cell line screen, 48 h
786-0 renal = system: 786-0 renal
A498 renal = system: A498 renal
A549 NSCLC = system: A549 NSCLC
ACHN renal = system: ACHN renal
BT-549 breast = system: BT-549 breast
CAKI-1 renal = system: CAKI-1 renal
CCRF-CEM leukemia = system: CCRF-CEM leukemia
COLO 205 colon = system: COLO 205 colon
DU-145 prostate = system: DU-145 prostate
HCC-2998 colon = system: HCC-2998 colon
HCT-116 colon = system: HCT-116 colon
HCT-15 colon = system: HCT-15 colon
HL-60(TB) leukemia = system: HL-60(TB) leukemia
HOP-62 NSCLC = system: HOP-62 NSCLC
HS 578T breast = system: HS 578T breast
HT29 colon = system: HT29 colon
IGROV1 ovarian = system: IGROV1 ovarian
K-562 leukemia = system: K-562 leukemia
KM12 colon = system: KM12 colon
M14 melanoma = system: M14 melanoma
MALME-3M melanoma = system: MALME-3M melanoma
MCF7 breast = system: MCF7 breast
MDA-MB-231 breast = system: MDA-MB-231 breast
MDA-MB-435 = system: MDA-MB-435
MOLT-4 leukemia = system: MOLT-4 leukemia
NCI-H226 lung = system: NCI-H226 lung
NCI-H23 lung = system: NCI-H23 lung
NCI-H460 lung = system: NCI-H460 lung
NCI-H522 lung = system: NCI-H522 lung
NCI/ADR-RES ovarian = system: NCI/ADR-RES ovarian
OVCAR-3 ovarian = system: OVCAR-3 ovarian
OVCAR-4 ovarian = system: OVCAR-4 ovarian
OVCAR-5 ovarian = system: OVCAR-5 ovarian
OVCAR-8 ovarian = system: OVCAR-8 ovarian
PC-3 prostate = system: PC-3 prostate
RPMI-8226 leukemia = system: RPMI-8226 leukemia
RXF 393 renal = system: RXF 393 renal
SF-268 CNS = system: SF-268 CNS
SF-295 CNS = system: SF-295 CNS
SF-539 CNS = system: SF-539 CNS
SK-MEL-28 melanoma = system: SK-MEL-28 melanoma
SK-MEL-5 melanoma = system: SK-MEL-5 melanoma
SK-OV-3 ovarian = system: SK-OV-3 ovarian
SN12C renal = system: SN12C renal
SNB-19 CNS = system: SNB-19 CNS
SNB-75 CNS = system: SNB-75 CNS
SR leukemia = system: SR leukemia
SW-620 colon = system: SW-620 colon
T-47D breast = system: T-47D breast
TK-10 renal = system: TK-10 renal
U251 CNS = system: U251 CNS
UACC-257 melanoma = system: UACC-257 melanoma
UACC-62 melanoma = system: UACC-62 melanoma
UO-31 renal = system: UO-31 renal

Question: How did the GI50 (786-0 renal) turn out when COc1ccc(C(=O)c2sc3nc4c(cc3c2N)CCCC4)cc1OC was run?
Answer: 4.01 µM

Question: What about the TGI (786-0 renal) of the same compound?
Answer: 17 µM

Question: And the GI50 (A498 renal)?
Answer: 1.83 µM

Question: And the TGI (A498 renal)?
Answer: 9.43 µM

Question: And the GI50 (A549 NSCLC)?
Answer: 3.28 µM

Question: What about the TGI (A549 NSCLC) of the same compound?
Answer: 12.9 µM

Question: And the GI50 (ACHN renal)?
Answer: 6.58 µM

Question: What about the TGI (ACHN renal) of the same compound?
Answer: 31.3 µM

Question: And the GI50 (BT-549 breast)?
Answer: 2.68 µM

Question: And the TGI (BT-549 breast)?
Answer: 8.25 µM

Question: And the GI50 (CAKI-1 renal)?
Answer: 2.83 µM

Question: What about the TGI (CAKI-1 renal) of the same compound?
Answer: 13 µM

Question: And the GI50 (CCRF-CEM leukemia)?
Answer: 2.95 µM

Question: And the TGI (CCRF-CEM leukemia)?
Answer: 12.3 µM

Question: And the GI50 (COLO 205 colon)?
Answer: 3.33 µM

Question: What about the TGI (COLO 205 colon) of the same compound?
Answer: 10.1 µM

Question: What about the GI50 (DU-145 prostate) of the same compound?
Answer: 6.74 µM

Question: What about the TGI (DU-145 prostate) of the same compound?
Answer: 36.6 µM

Question: What about the GI50 (HCC-2998 colon) of the same compound?
Answer: 7.01 µM

Question: And the TGI (HCC-2998 colon)?
Answer: 30.4 µM

Question: What about the GI50 (HCT-116 colon) of the same compound?
Answer: 3.78 µM

Question: What about the TGI (HCT-116 colon) of the same compound?
Answer: 50.2 µM

Question: And the GI50 (HCT-15 colon)?
Answer: 2.48 µM

Question: What about the TGI (HCT-15 colon) of the same compound?
Answer: 21.2 µM

Question: And the GI50 (HL-60(TB) leukemia)?
Answer: 2.8 µM

Question: What about the TGI (HL-60(TB) leukemia) of the same compound?
Answer: 7.62 µM

Question: And the GI50 (HOP-62 NSCLC)?
Answer: 3.87 µM

Question: What about the TGI (HOP-62 NSCLC) of the same compound?
Answer: 15.3 µM

Question: And the GI50 (HS 578T breast)?
Answer: 4.93 µM

Question: And the TGI (HS 578T breast)?
Answer: 56.6 µM

Question: What about the GI50 (HT29 colon) of the same compound?
Answer: 3.08 µM

Question: What about the TGI (HT29 colon) of the same compound?
Answer: 15.9 µM

Question: What about the GI50 (IGROV1 ovarian) of the same compound?
Answer: 4.75 µM

Question: What about the TGI (IGROV1 ovarian) of the same compound?
Answer: 29.3 µM

Question: And the GI50 (K-562 leukemia)?
Answer: 0.946 µM

Question: What about the TGI (K-562 leukemia) of the same compound?
Answer: 40.6 µM

Question: And the GI50 (KM12 colon)?
Answer: 2.43 µM

Question: What about the TGI (KM12 colon) of the same compound?
Answer: 15.5 µM

Question: What about the GI50 (M14 melanoma) of the same compound?
Answer: 2.83 µM

Question: And the TGI (M14 melanoma)?
Answer: 11.5 µM

Question: What about the GI50 (MALME-3M melanoma) of the same compound?
Answer: 2.71 µM

Question: And the TGI (MALME-3M melanoma)?
Answer: 14.8 µM

Question: And the GI50 (MCF7 breast)?
Answer: 2.74 µM

Question: And the TGI (MCF7 breast)?
Answer: 10.6 µM

Question: What about the GI50 (MDA-MB-231 breast) of the same compound?
Answer: 3.74 µM

Question: And the TGI (MDA-MB-231 breast)?
Answer: 8.72 µM

Question: What about the GI50 (MDA-MB-435) of the same compound?
Answer: 0.723 µM

Question: And the TGI (MDA-MB-435)?
Answer: 5.76 µM

Question: What about the GI50 (MOLT-4 leukemia) of the same compound?
Answer: 2.62 µM

Question: And the TGI (MOLT-4 leukemia)?
Answer: 6.49 µM

Question: What about the GI50 (NCI-H226 lung) of the same compound?
Answer: 3.5 µM

Question: And the TGI (NCI-H226 lung)?
Answer: 23 µM

Question: And the GI50 (NCI-H23 lung)?
Answer: 2.64 µM

Question: What about the TGI (NCI-H23 lung) of the same compound?
Answer: 9.94 µM

Question: What about the GI50 (NCI-H460 lung) of the same compound?
Answer: 3.22 µM

Question: And the TGI (NCI-H460 lung)?
Answer: 13.2 µM

Question: What about the GI50 (NCI-H522 lung) of the same compound?
Answer: 1.52 µM

Question: What about the TGI (NCI-H522 lung) of the same compound?
Answer: 5.53 µM

Question: And the GI50 (NCI/ADR-RES ovarian)?
Answer: 2.04 µM

Question: What about the TGI (NCI/ADR-RES ovarian) of the same compound?
Answer: 6.67 µM

Question: What about the GI50 (OVCAR-3 ovarian) of the same compound?
Answer: 3.91 µM

Question: What about the TGI (OVCAR-3 ovarian) of the same compound?
Answer: 24.4 µM

Question: What about the GI50 (OVCAR-4 ovarian) of the same compound?
Answer: 3.48 µM

Question: What about the TGI (OVCAR-4 ovarian) of the same compound?
Answer: 18.6 µM

Question: What about the GI50 (OVCAR-5 ovarian) of the same compound?
Answer: 14.1 µM

Question: And the TGI (OVCAR-5 ovarian)?
Answer: 48.5 µM

Question: What about the GI50 (OVCAR-8 ovarian) of the same compound?
Answer: 2.83 µM

Question: And the TGI (OVCAR-8 ovarian)?
Answer: 9.88 µM

Question: What about the GI50 (PC-3 prostate) of the same compound?
Answer: 2.97 µM

Question: And the TGI (PC-3 prostate)?
Answer: 15 µM

Question: And the GI50 (RPMI-8226 leukemia)?
Answer: 2.31 µM

Question: What about the TGI (RPMI-8226 leukemia) of the same compound?
Answer: 8.01 µM

Question: What about the GI50 (RXF 393 renal) of the same compound?
Answer: 3.41 µM

Question: And the TGI (RXF 393 renal)?
Answer: 24.2 µM

Question: What about the GI50 (SF-268 CNS) of the same compound?
Answer: 5.56 µM

Question: And the TGI (SF-268 CNS)?
Answer: 34.6 µM

Question: What about the GI50 (SF-295 CNS) of the same compound?
Answer: 3.06 µM

Question: What about the TGI (SF-295 CNS) of the same compound?
Answer: 13.5 µM

Question: What about the GI50 (SF-539 CNS) of the same compound?
Answer: 3.83 µM

Question: And the TGI (SF-539 CNS)?
Answer: 25.7 µM

Question: What about the GI50 (SK-MEL-28 melanoma) of the same compound?
Answer: 2.95 µM

Question: What about the TGI (SK-MEL-28 melanoma) of the same compound?
Answer: 14.8 µM

Question: And the GI50 (SK-MEL-5 melanoma)?
Answer: 1.87 µM

Question: What about the TGI (SK-MEL-5 melanoma) of the same compound?
Answer: 4.92 µM

Question: And the GI50 (SK-OV-3 ovarian)?
Answer: 10 µM

Question: What about the TGI (SK-OV-3 ovarian) of the same compound?
Answer: 47.6 µM

Question: What about the GI50 (SN12C renal) of the same compound?
Answer: 4.18 µM

Question: What about the TGI (SN12C renal) of the same compound?
Answer: 48.5 µM

Question: And the GI50 (SNB-19 CNS)?
Answer: 7.06 µM

Question: What about the TGI (SNB-19 CNS) of the same compound?
Answer: > 100 µM

Question: And the GI50 (SNB-75 CNS)?
Answer: 2.79 µM

Question: What about the TGI (SNB-75 CNS) of the same compound?
Answer: 9.93 µM

Question: What about the GI50 (SR leukemia) of the same compound?
Answer: 1.59 µM

Question: And the TGI (SR leukemia)?
Answer: 17.8 µM

Question: What about the GI50 (SW-620 colon) of the same compound?
Answer: 4.15 µM

Question: And the TGI (SW-620 colon)?
Answer: 26.9 µM

Question: What about the GI50 (T-47D breast) of the same compound?
Answer: 2.65 µM

Question: What about the TGI (T-47D breast) of the same compound?
Answer: 8.95 µM

Question: What about the GI50 (TK-10 renal) of the same compound?
Answer: 4.77 µM

Question: What about the TGI (TK-10 renal) of the same compound?
Answer: 26.5 µM

Question: And the GI50 (U251 CNS)?
Answer: 3.03 µM

Question: What about the TGI (U251 CNS) of the same compound?
Answer: 16.2 µM

Question: What about the GI50 (UACC-257 melanoma) of the same compound?
Answer: 3.81 µM

Question: What about the TGI (UACC-257 melanoma) of the same compound?
Answer: 14.9 µM

Question: What about the GI50 (UACC-62 melanoma) of the same compound?
Answer: 1.99 µM

Question: What about the TGI (UACC-62 melanoma) of the same compound?
Answer: 6.8 µM

Question: And the GI50 (UO-31 renal)?
Answer: 3.04 µM

Question: What about the TGI (UO-31 renal) of the same compound?
Answer: 13.8 µM
